Patent US9255100B2 (BAYER INTELLECTUAL PROPERTY GMBH, priority 2010, dated 2016)
pIC50: −log10 of the molar value. Like-named read-outs stand apart in the source and are kept apart here.

Target: T1, N-terminally GST-tagged human full length recombinant Mps-1 kinase (Homo sapiens, UniProt P33981)
T1 construct: N-terminally GST-tagged human full length recombinant Mps-1 kinase; purchased Invitrogen, Karslruhe, Germany PV4071
T1 sequence (P33981 1-857): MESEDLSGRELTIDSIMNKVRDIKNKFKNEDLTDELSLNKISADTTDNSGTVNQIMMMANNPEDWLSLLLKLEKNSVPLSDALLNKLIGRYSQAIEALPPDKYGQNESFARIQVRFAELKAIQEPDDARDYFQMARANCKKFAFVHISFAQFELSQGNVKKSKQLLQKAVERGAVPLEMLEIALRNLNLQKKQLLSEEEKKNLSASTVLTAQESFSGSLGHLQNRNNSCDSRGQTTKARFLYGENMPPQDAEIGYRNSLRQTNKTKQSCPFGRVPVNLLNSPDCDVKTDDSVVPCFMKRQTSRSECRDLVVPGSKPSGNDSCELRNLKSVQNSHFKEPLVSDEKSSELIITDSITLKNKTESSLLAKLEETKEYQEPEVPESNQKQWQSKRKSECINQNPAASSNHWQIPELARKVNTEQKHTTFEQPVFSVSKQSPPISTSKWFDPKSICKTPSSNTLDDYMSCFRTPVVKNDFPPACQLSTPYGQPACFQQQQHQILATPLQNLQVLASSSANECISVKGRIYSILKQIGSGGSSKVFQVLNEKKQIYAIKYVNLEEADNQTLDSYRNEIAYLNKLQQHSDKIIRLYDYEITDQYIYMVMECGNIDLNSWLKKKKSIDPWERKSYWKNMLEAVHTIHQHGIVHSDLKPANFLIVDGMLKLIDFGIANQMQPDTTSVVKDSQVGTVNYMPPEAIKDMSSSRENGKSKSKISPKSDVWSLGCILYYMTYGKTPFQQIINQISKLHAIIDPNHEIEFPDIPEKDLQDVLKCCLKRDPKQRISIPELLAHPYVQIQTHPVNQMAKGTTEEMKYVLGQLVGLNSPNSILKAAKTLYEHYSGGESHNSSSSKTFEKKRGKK
Experiment: Mps-1 kinase assay (TR-FRET)
Format: biochemical
Details: 10 μM ATP, 1 μM peptide substrate, 60 min at 22° C.; for IC50: Mps1 IC50 [nM]
Experimental: The human kinase Mps-1 phosphorylates a biotinylated substrate peptide. Detection of the phosphorylated product is achieved by time-resolved fluorescence resonance energy transfer (TR-FRET) from Europium-labelled anti-phospho-Serine/Threonine antibody as donor to streptavidin labelled with cross-linked allophycocyanin (SA-XLent) as acceptor. Compounds are tested for their inhibition of the kinase activity.
N-terminally GST-tagged human full length recombinant Mps-1 kinase (purchased from Invitrogen, Karslruhe, Germany, cat. no PV4071) was used. As substrate for the kinase reaction a biotinylated peptide of the amino-acid sequence […] (C-terminus in amide form, purchased from Biosynthan GmbH, Berlin) was used.
The concentration of Mps-1 in the assay was adjusted to the activity of the enzyme lot and was chosen appropriate to have the assay in the linear range, typical enzyme concentrations were in the range of about 1 nM (final conc. in the 5 μl assay volume).
The resulting mixture was incubated 1 h at 22° C. to allow the binding of the phosphorylated peptide to the anti-phospho(Ser/Thr)-Europium-antibody. Subsequently the amount of phosphorylated substrate was evaluated by measurement of the resonance energy transfer from the Europium-labelled anti-phospho(Ser/Thr) antibody to the Streptavidin-XLent.

Compound	IC50 [nM]	pIC50 (read-out: Mps1 IC50)
COc1cccc(Nc2cc(NCC(C)(C)O)c3ncc(-c4ccc(C(=O)NC5CC5)c(C)c4)n3n2)c1C [Example 398, N-cyclopropyl-4-{8-[(2-hydroxy-2-methylpropyl)amino]-6-[(3-methoxy-2-methylphenyl)amino]imidazo[1,2-b]pyridazin-3-yl}-2-methylbenzamide]	0.4	–
Cc1cc(-c2cnc3c(NCC4CN(C)C4)cc(Oc4cccc(F)c4F)nn23)ccc1C(=O)NC1CC1 [Example 543, N-cyclopropyl-4-[6-(2,3-difluorophenoxy)-8-{[(1-methylazetidin-3-yl)methyl]amino}imidazo[1,2-b]pyridazin-3-yl]-2-methylbenzamide]	0.2	–
Cc1cc(-c2cnc3c(NCC(C)(C)N)cc(Oc4cccnc4)nn23)ccc1C(=O)NC1CC1 [Example 522, 4-{8-[(2-amino-2-methyl-propyl)amino]-6-(pyridin-3-yloxy)imidazo[1,2-b]pyridazin-3-yl}-N-cyclopropyl-2-methylbenzamide]	1.8	–
CNC(=O)c1ccc(-c2cnc3c(NCCOC)cc(Oc4ccccc4)nn23)cc1C [Example 587, 4-{8-[(2-methoxyethyl)amino]-6-phenoxyimidazo[1,2-b]pyridazin-3-yl}-N,2-dimethylbenzamide]	3.2	–
Cc1c[nH]c(Sc2cc(NCC(C)(C)O)c3ncc(-c4ccc(C(=O)NC5CC5)c(C)c4)n3n2)n1 [Example 317, N-cyclopropyl-4-{8-[(2-hydroxy-2-methylpropyl)amino]-6-[(4-methyl-1H-imidazol-2-yl)sulfanyl]imidazo[1,2-b]pyridazin-3-yl}-2-methylbenzamide]	7.4	–
Cc1cc(-c2cnc3c(NCC4CC[S+]([O-])CC4)cc(Oc4ccc(F)cc4)nn23)ccc1C(=O)NC1CC1 (mixture of isomers) [Example 295B, N-cyclopropyl-4-[6-(4-fluorophenoxy)-8-({[(cis/trans)-1-oxidotetrahydro-2H-thiopyran-4-yl]methyl}amino)imidazo[1,2-b]pyridazin-3-yl]-2-methylbenzamide]	–	9.70
CNC(=O)c1ccc(-c2cnc3c(NCCOC)cc(Oc4ccc(OC)c(F)c4)nn23)cc1C [Example 586, 4-{6-(3-fluoro-4-methoxyphenoxy)-8-[(2-methoxyethyl)a-mino]imidazo[1,2-b]pyridazin-3-yl]-N,2-dimethylbenzamide]	1	–
CCNC(=O)c1ccc(-c2cnc3c(NCCOC)cc(Oc4ccc(OC)cc4F)nn23)cc1C [Example 608, N-ethyl-4-{6-(2-fluoro-4-methoxyphenoxy)-8-[(2-methoxyethyl)a-mino]imidazo[1,2-b]pyridazin-3-yl}-2-methylbenzamide]	3.9	–
Cc1cc(-c2cnc3c(NCCCN4CCCCC4)cc(Oc4cccc(F)c4)nn23)ccc1C(=O)NC1CC1 [Example 505, N-cyclopropyl-4-[6-(3-fluoro-phenoxy)-8-{[3-(piperidin-1-yl)propyl]amino}imidazo[1,2-b]pyridazin-3-yl]-2-methyl-benzamide]	0.2	–
Cc1nnc(-c2ccc(-c3cc(NCC(C)C)c4ncc(-c5ccc(C(=O)NC6CC6)cc5)n4n3)cc2)o1 [Example 148, N-cyclopropyl-4-{6-[4-(5-methyl-1,3,4-oxadiazol-2-yl)phenyl]-8-[(2-methylpropyl)amino]imidazo[1,2-b]pyridazin-3-yl}benzamide]	1.5	–
CNc1cc(Oc2cc(F)ccc2C)nn2c(-c3ccc(C(=O)NC4CC4)c(C)c3)cnc12 [Example 530, N-cyclopropyl-4-[6-(5-fluoro-2-methylphenoxy)-8-(methylamino)imidazo [1,2-b]pyridazin-3-yl]-2-methylbenzamide]	0.6	–
Cc1cc(-c2cnc3c(NCC(C)(C)O)cc(Sc4ccc(O)cc4)nn23)ccc1C(=O)NC1CC1 [Example 60A, N-cyclopropyl-4-{8-[(2-hydroxy-2-methylpropyl)amino]-6-[(4-hydroxyphenyl)sulfanyl]imidazo[1,2-b]pyridazin-3-yl}-2-methylbenzamide]	0.2	–
Cc1cc(-c2cnc3c(NCCC(C)CO)cc(-c4ccccc4CO)nn23)ccc1C(=O)NC1CC1 (racemic) [Example 343, (RS)-N-cyclopropyl-4-{8-[(4-hydroxy-3-methylbutyl)amino]-6-[2-(hydroxymethyl)phenyl]imidazo [1,2-b]pyridazin-3-yl}-2-methyl-benzamide]	4.3	–
CC(C)CNc1cc(-c2ccc(F)cc2)nn2c(-c3ccc(C(=O)NC4CC4)cc3)cnc12 [Example 104, N-cyclopropyl-4-{6-(4-fluorophenyl)-8-[(2-methylpropyl)amino]imidazo[1,2-b]pyridazin-3-yl}benzamide]	< 1	–
Cc1cc(-c2cnc3c(NCC4CCC(F)(F)CC4)cc(Oc4cccc(F)c4)nn23)ccc1C(=O)NC1CC1 [Example 494, N-cyclopropyl-4-[8-{[(4,4-difluorocyclohexyl)methyl]amino}-6-(3-fluorophenoxy)imidazo[1,2-b]pyridazin-3-yl]-2-methylbenzamide]	0.3	–
CSc1cccc(Oc2cc(NCC(C)(C)O)c3ncc(-c4ccc(C(=O)NC5CC5)c(C)c4)n3n2)c1F [Example 458, N-cyclopropyl-4-{6-[2-fluoro-3-(methylsulfanyl)phenoxy]-8-[(2-hydroxy-2-methylpropyl)amino]imidazo[1,2-b]pyridazin-3-yl}-2-methylbenzamide]	1.1	–
Cc1cc(-c2cnc3c(NCC(C)(C)O)cc(-c4c(C)noc4C)nn23)ccc1C(=O)NC1CC1 [Example 159, N-cyclopropyl-4-{6-(3,5-dimethyl-1,2-oxazol-4-yl)-8-[(2-hydroxy-2-methylpropyl)amino]imidazo[1,2-b]pyridazin-3-yl}-2-methylbenzamide]	14.8	–
COc1cc(C(=O)NC2CC2)ccc1-c1cnc2c(NCCC(F)(F)F)cc(-c3ccccc3CO)nn12 [Example 54, N-cyclopropyl-4-{6-[2-(hydroxymethyl)phenyl]-8-[(3,3,3-trifluoropropyl)amino]imidazo[1,2-b]pyridazin-3-yl}-3-methoxybenzamide]	7.6	–
Cc1cc(-c2cnc3c(NCC(C)(C)O)cc(-c4cc(C(F)(F)F)nn4C)nn23)ccc1C(=O)NC1CC1 [Example 235, N-cyclopropyl-4-{8-[(2-hydroxy-2-methylpropyl)amino]-6-[1-methyl-3-(trifluoromethyl)-1H-pyrazol-5-yl]imidazo[1,2-b]pyridazin-3-yl}-2-methylbenzamide]	6.2	–
Cc1cc(-c2cnc3c(NCCC(=O)N(C)C)cc(Oc4cccc(F)c4)nn23)ccc1C(=O)NC1CC1 [Example 493, N-cyclopropyl-4-[8-{[3-(dimethyl-amino)-3-oxopropyl]amino}-6-(3-fluorophenoxy)imidazo[1,2-b]pyridazin-3-yl]-2-methyl-benzamide]	0.3	–
COc1ccc(Nc2cc(NCC(C)(C)O)c3ncc(-c4ccc(C(=O)NC5CC5)c(C)c4)n3n2)cn1 [Example 366, N-cyclopropyl-4-{8-[(2-hydroxy-2-methylpropyl)amino]-6-[(6-methoxypyridin-3-yl)-amino]imidazo[1,2-b]pyridazin-3-yl}-2-methylbenzamide]	1.1	–
Cc1ccc(Cl)cc1Nc1cc(NCCCC(F)(F)F)c2ncc(-c3ccc(C(=O)NC4CC4)c(C)c3)n2n1 [Example 451, 4-{6-[(5-chloro-2-methylphenyl)amino]-8-[(4,4,4-trifluorobutyl)amino]imidazo[1,2-b]pyridazin-3-yl}-N-cyclopropyl-2-methylbenzamide]	1.3	–
Cc1cc(-c2cnc3c(NCC(C)(C)N)cc(Oc4ccc(F)c(F)c4)nn23)ccc1C(=O)NC1CC1 [Example 520, 4-{8-[(2-amino-2-methylpropyl)amino]-6-(3,4-difluorophenoxy)imidazo[1,2-b]pyridazin-3-yl}-N-cyclopropyl-2-methylbenzamide]	0.2	–
Cc1cc(-c2cnc3c(NCC(C)(C)O)cc(Nc4ccncc4)nn23)ccc1C(=O)NC1CC1 [Example 365, N-cyclopropyl-4-{8-[(2-hydroxy-2-methylpropyl)amino]-6-(pyridin-4-ylamino)imidazo[1,2-b]pyridazin-3-yl}-2-methylbenzamide]	4.4	–
